Laboratory results published in article PMC11324297, “CDKL3 is a targetable regulator of cell cycle progression in cancers” (The Journal of Clinical Investigation, 2024).

Experiments:
HeLa [1] = test: cells; design: tumour cell growth suppression, dose response, 24 h; conditions: Homo sapiens, 24 h
Method: (§1) On the basis of a previous publication, a potential CDKL3 inhibitor candidate caught our attention. […] Thus, we intended to generate an efficient CDKL3 inhibitor based on this chemical backbone for cell cycle arrest. As the first step, the original compound (ASC67) was synthesized, and the performance was evaluated ([50]). The addition of ASC67 could gradient-dependently diminish the phosphorylation of Rb by CDKL3 while not influencing CDK4 or CDK2 in vitro (Figure 8B). The effectiveness of this chemical was then evaluated using a variety of cancer cell lines, including estrogen-responsive (ER^+) breast cancer, for which palbociclib is administrated clinically ([51]). […] As a direct comparison, the clinically approved CDK4/6 inhibitor had IC50 values ranging from 1 to 5 μM in different cell lines (Figure 8, C–F, and Supplemental Figure 6, A–F) ([47], [52]–[55]). This information made it evident that ASC67 holds considerable promise in cancer treatment and can be used as a backbone compound for further optimization. Chemical treatments Cdk1/2 Inhibitor III was dissolved in DMSO with a concentration of 25mM as stock solution. Cells were treated at a final concentration of 1.2μM. 5μM was used for in vitro kinase assay. Palbociclib was dissolved in DMSO with a concentration of 100mM as stock solution. Cells were treated with Palbociclib at a final concentration of 0.8μM. 5μM was used for in vitro kinase assay. Thymidine was dissolved in ddH2O with a concentration of 200mM. Cells were treated with Thymidine at a final concentration of 2mM. ASC67 was dissolved in DMSO with a concentration of 300mM as stock solution. For IC50 assay, cells were treated at a concentration range from 0 to 300μM. For in vitro kinase assay, the concentration ranging from 0 to 0.5μM was used. The inhibitor C3I-22 (HZ1) was dissolved in DMSO with a concentration of 300mM as stock solution. For IC50 assay, cells were treated with a concentration range from 0 to 300μM. For in vitro kinase assay, the concentration ranging from 0 to 0.1μM was used. Organoids derived from colon cancer patients were treated with a concentration range from 0 to 5μM. Balb/cA-nude and C57BL/6J-Apcmin/+ mice were treated with a concentration of 1mg/kg (suspended in PBS) through oral gavage. Other C3I inhibitors were dissolved in DMSO with a concentration of 200mM as stock solution. In vitro protein purification GST-tagged proteins were transformed into E. coli BL21 competent cells, and then protein expression was induced by adding IPTG (Beyotime Biotechnology) at 18°C for 6 to 10 hours. The bacterial culture was centrifuged (600xg, 10 min, 4°C), and the pellets were resuspended in 20mL lysis buffer (50mM Tris-HCl, 300mM NaCl, and 10% (v/v) glycerol, 1mM [compound left out], pH 7.9) and sonicated with 50% power on a SCIENTZ JY92-IIN sonicator for 20 minutes (5 seconds per time, with an interval of 5 seconds).

MDA-MB-231 [2] = test: cells; design: tumour cell growth suppression, dose response, 24 h; conditions: Homo sapiens, MDA-MB-231, 24 h
Method: as §1

U2OS [3] = test: cells; design: tumour cell growth suppression, dose response, 24 h; conditions: Homo sapiens, 24 h
Method: as §1

HeLa [4] = test: cells; design: tumour cell growth suppression, dose response, 72 h; conditions: Homo sapiens, 72 h
Method: as §1

MDA-MB-231 [5] = test: cells; design: tumour cell growth suppression, dose response, 72 h; conditions: Homo sapiens, MDA-MB-231, 72 h
Method: as §1

U2OS [6] = test: cells; design: tumour cell growth suppression, dose response, 72 h; conditions: Homo sapiens, 72 h
Method: as §1

MCF7 [7] = test: cells; design: tumour cell growth suppression, dose response, 24 h; conditions: Homo sapiens, 24 h, parental cells
Method: as §1

T47D [8] = test: cells; design: tumour cell growth suppression, dose response, 24 h; conditions: Homo sapiens, 24 h, parental cells
Method: as §1

MCF7 [9] = test: cells; design: tumour cell growth suppression, dose response, 72 h; conditions: Homo sapiens, 72 h, parental cells
Method: as §1

T47D [10] = test: cells; design: tumour cell growth suppression, dose response, 72 h; conditions: Homo sapiens, 72 h, parental cells
Method: as §1

DLD-1 [11] = test: cells; design: tumour cell growth suppression, dose response, 24 h; conditions: Homo sapiens, 24 h, parental cells
Method: as §1

DLD-1 [12] = test: cells; design: tumour cell growth suppression, dose response, 72 h; conditions: Homo sapiens, 72 h, parental cells
Method: as §1

Stub1 = Stub1 (UniProt Q9UNE7); test: co-immunoprecipitation; conditions: reference: CDK4 wild type; sites T172
Trim28 = Trim28 (UniProt Q13263); test: co-immunoprecipitation; conditions: reference: CDK4 wild type; sites T172
UBE3A = UBE3A (UniProt Q05086); test: co-immunoprecipitation; conditions: reference: CDK4 wild type; sites T172

N#CCc1ccc(Nc2nccc(Nc3cc(C4CCCC4)n[nH]3)n2)cc1 [ASC67]
IC50 (HeLa [1]): 0.954 µM
IC50 (MDA-MB-231 [2]): 1.83 µM
IC50 (U2OS [3]): 1.81 µM
IC50 (HeLa [4]): 1.55 µM
IC50 (MDA-MB-231 [5]): 0.381 µM
IC50 (U2OS [6]): 0.998 µM

CC(=O)c1c(C)c2cnc(Nc3ccc(N4CCNCC4)cn3)nc2n(C2CCCC2)c1=O [palbociclib]
IC50 (HeLa [1]): 4.24 µM
IC50 (MCF7 [7]): 2.88 µM
IC50 (MDA-MB-231 [2]): 5.2 µM
IC50 (T47D [8]): 2.15 µM
IC50 (U2OS [3]): 3.52 µM
IC50 (MCF7 [9]): 2.57 µM
IC50 (T47D [10]): 1.86 µM

CC(=O)c1ccc(Nc2nccc(Nc3cc(C4CCCC4)n[nH]3)n2)cc1 [C3I-22, HZ1]
IC50 (DLD-1 [11]): 0.6 µM
IC50 (U2OS [3]; parental cells): 1.32 µM
IC50 (DLD-1 [12]): 0.147 µM
IC50 (U2OS [6]): 0.348 µM
IC50 (U2OS [6]; parental cells): 0.415 µM

CDK4 (from UniProt P11802) CDK4 T172A
binding against the reference (Stub1): stronger
binding against the reference (Trim28): stronger
binding against the reference (UBE3A): stronger

O=C(O)c1ccc(Nc2nccc(Nc3cc(C4CCCC4)n[nH]3)n2)cc1 [C3I-22-1, 4-((4-((3-cyclopentyl-1H-pyrazol-5-yl)amino)pyrimidin-2-yl)amino)benzoic acid]
IC50 (U2OS [6]): 38.8 µM
